In the METLIN SMRT retention time set (Domingo-Almenara et al. 2019):

assay: gradient 5% acetonitrile 3 min, to 50% in 2 min, to 85% in 15 min, held 3 min, 100 µL/min; conditions: column: Zorbax Extend-C18 2.1 x 50 mm; eluents: water / acetonitrile, 0.1% formic acid
Method in brief: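 In both positive and negative ionization mode, a quadrupole time-of-flight mass spectrometer coupled to HPLC analyzed pure standards run in mixtures of ~100 molecules. The Zorbax Extend-C18 column (2.1 × 50 mm, 1.8 μm) was operated at 100 μL/min with water and acetonitrile, each containing 0.1% formic acid. The dead volume was 40 μL and the dwell volume 900 μL. Retention time came from adduct peaks that were computationally picked and individually inspected by hand.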

SMILES | RP-LC retention time
CCN1CCN(CCCNC(=O)c2noc(C)c2Cn2nc(C)cc2C)CC1 | 572 s
CCc1nc2cc(N3CCC(C(=O)NCc4cc(F)ccc4F)CC3)cnc2nc1CC | 838 s
Cc1cc(C)n(Cc2ccc(C(=O)NCC3Cn4cccc4C(=O)N3C)o2)n1 (configuration not stated) | 634 s
CCOc1ccc2nc(NC(=O)CCN3C(=O)C4C5C=CC(C5)C4C3=O)sc2c1 (configuration not stated) | 834 s
COc1cccc(OC)c1C(=O)N1CCCC1c1c(C)noc1C (configuration not stated) | 665 s
Cc1nc(NCCNC(=O)c2cccs2)cc(N2CCCC2)n1 | 560 s
Cc1ccc(Sc2nccnc2N2CCCC(C(=O)NCc3ccccn3)C2)cc1 (configuration not stated) | 766 s
O=C(Nc1cccc(Br)c1)C1CCN(C(=O)c2cc(-c3ccncc3)n[nH]2)CC1 | 640 s
CCS(=O)(=O)N1CC(=O)N(c2cccc(C)c2C)C(C)(C(=O)NC2CCCCCC2)C1 (configuration not stated) | 930 s
COC(=O)c1cc2c(=O)n(-c3nccs3)ccc2nc1C | 896 s
Cc1ccc(CNC(=O)C2CCN(c3cnn(C)c(=O)c3)C2)o1 (configuration not stated) | 641 s
COc1ccc(NC(=O)Cn2c(C)nc3c(sc4nc(-c5ccccc5)ccc43)c2=O)cc1 | 988 s
CCOCCCNC(=O)C1CCCN(S(=O)(=O)c2ccc3c(ccn3C)c2)C1 (configuration not stated) | 788 s
COCc1cn(C2CN(C(=O)c3cc(C)nn3C)C2)nn1 | 581 s
CCc1ccc2occ(CC(=O)N(Cc3ccc(N(C)C)cc3)C3CCS(=O)(=O)C3)c2c1 (configuration not stated) | 868 s
O=C(c1cn2nc(Cl)ccc2n1)N1CCN(c2ccc(Cl)cc2)CC1 | 858 s
CCCn1c(CCNC(=O)c2ccccc2)nc2cccnc21 | 633 s
O=C(NCc1ccc(F)cc1Cl)c1csc(C(=O)NC2CCCC2)n1 | 968 s
COCc1noc([C@@H]2CC(F)(F)CN2C(=O)c2c(C)noc2C)n1 | 705 s

Other lines, results leading:

RP-LC retention time | SMILES
651 s | CC1CCCCN1CCCNC(=O)CN1C(=O)CSc2cccn2-c2ccccc21 (configuration not stated)
774 s | O=C(NCc1noc(-c2ccc(F)cc2)n1)C1CCC1
858 s | O=C(Nc1cccc(Cl)c1)N1CCC(n2cnc3cc(F)ccc3c2=O)CC1
797 s | CCOCCCNC(=O)C(C)Sc1ccc(=O)n(-c2ccc(C)c(Cl)c2)n1 (configuration not stated)
969 s | CCCn1c(=O)sc2cc(S(=O)(=O)N3CCC(C(=O)Nc4cccc(CC)c4)CC3)ccc21
665 s | Cc1cc(N2CCN(C(=O)Nc3ccc(F)c(Cl)c3)CC2)nc(N2CCOCC2)n1
1160 s | Cc1noc(C)c1-c1ccc(S(=O)(=O)N2CCN(c3cccc(Cl)c3)CC2)cc1
908 s | Cc1ccc(C)c(NC(=O)Cn2nc3c(Oc4ccccc4C)nccn3c2=O)c1
1050 s | CC1CCN(S(=O)(=O)N2CCCC(C(=O)NCc3ccc(Cl)cc3)C2)CC1 (configuration not stated)
732 s | C=CCNC(=O)N1CCCN(C2=NS(=O)(=O)C(c3ccc(C)cc3)=C2C)CC1
979 s | O=C(Cn1c(=O)cc(-c2nc(C3CC3)no2)c2ccccc21)NCc1ccc(Cl)cc1
659 s | O=C(Nc1ccc2nncn2c1)Nc1ccccc1F
1300 s | Cc1ccc(-c2csc(NC(=O)CCCOc3ccccc3C)n2)cc1
932 s | CCc1nnc2ccc(-c3noc(Cc4ccc(Cl)cc4)n3)cn12
949 s | CCc1ccc(C2=C(C)C(N3CCCN(C(=O)CC(C)(C)C)CC3)=NS2(=O)=O)cc1
784 s | CCOc1ccc(CNC(=O)C2CCCN(c3nn4c(=O)c5c(nc4s3)CCCC5)C2)cc1 (configuration not stated)
700 s | Cc1cnc(NC(=O)C2CN(c3nc4ccccc4s3)C2)s1
608 s | CCCNC(=O)c1ccc2nc(CCc3ccc(NC(=O)CC)cc3)[nH]c2c1
